Assay results as given in the NIST ThermoML archive (doi:10.1021/je700740e).

Conditions: Liquid; for mass density: Vibrating tube method; for viscosity: Vibrating wire viscometry

Cc1ccccc1 [toluene]
Conditions	mass density, 298.15 K [kg/m3]	mass density, 323.15 K [kg/m3]	viscosity, 298.15 K [mPa·s]	viscosity, 323.15 K [mPa·s]
100 kPa	862.5	–	0.555	–
120 kPa	–	840.467	–	0.425
2300 kPa	864.389	–	0.569	–
3340 kPa	–	843.459	–	0.431
4400 kPa	865.888	–	0.58	–
6340 kPa	–	846.144	–	0.448
7430 kPa	868.038	–	0.593	–
9600 kPa	–	848.793	–	0.461
10400 kPa	870.54	–	0.597	–
12470 kPa	871.736	–	0.613	–
12750 kPa	–	851.586	–	0.464
14490 kPa	873.496	–	0.617	–
14770 kPa	–	853.276	–	0.466

CCOC(=O)CCCCC(=O)OCC [diethyl hexanedioate]
Conditions	mass density [kg/m3]	viscosity [mPa·s]
303.15 K, 100 kPa	998.842	2.786
303.15 K, 4520 kPa	1001.81	2.909
303.15 K, 9610 kPa	1005.24	3.061
303.15 K, 14700 kPa	1008.51	3.226
303.15 K, 19790 kPa	1012.52	3.343
313.15 K, 100 kPa	989.86	2.257
313.15 K, 4520 kPa	993.535	2.335
313.15 K, 9630 kPa	996.693	2.472
313.15 K, 14750 kPa	1000.42	2.589
313.15 K, 19890 kPa	1003.55	2.726
323.15 K, 100 kPa	981.395	1.846
323.15 K, 4520 kPa	984.72	1.932
323.15 K, 9600 kPa	988.74	2.021
323.15 K, 14690 kPa	992.273	2.126
323.15 K, 19710 kPa	995.581	2.23
333.15 K, 100 kPa	971.597	1.58
333.15 K, 4520 kPa	975.516	1.642
333.15 K, 9630 kPa	979.685	1.716
333.15 K, 14710 kPa	983.483	1.802
333.15 K, 19710 kPa	987.107	1.886
343.15 K, 100 kPa	962.622	1.35
343.15 K, 4510 kPa	966.544	1.407
343.15 K, 9600 kPa	970.932	1.471
343.15 K, 14700 kPa	975.031	1.542
343.15 K, 19700 kPa	978.932	1.608
353.15 K, 100 kPa	953.224	1.179
353.15 K, 4520 kPa	957.353	1.227
353.15 K, 9620 kPa	962.118	1.28
353.15 K, 14710 kPa	966.479	1.338
353.15 K, 19680 kPa	970.392	1.402
363.15 K, 100 kPa	943.203	1.041
363.15 K, 4520 kPa	948.203	1.078
363.15 K, 9610 kPa	953.106	1.129
363.15 K, 14700 kPa	957.919	1.174
363.15 K, 19710 kPa	962.125	1.226
373.15 K, 100 kPa	934.753	0.914
373.15 K, 4520 kPa	939.138	0.956
373.15 K, 9620 kPa	944.359	1
373.15 K, 14680 kPa	948.986	1.046
373.15 K, 19910 kPa	953.741	1.096
